Values quoted from earlier work as cited in patent US20170071869A1 (Teva Pharmaceutical Industries Ltd., priority 2014, published 2017).

Legend:
[1] = test system: genes related to antigen presentation (NFkB pathway); settings: mainly via the NFkB pathway

In the case of `CCN(C(=O)c1c(O)c2c(Cl)cccc2n(C)c1=O)c1ccccc1` [Laquinimod], the oral bioavailability is given as “high oral bioavailability” and the “suppression of genes related to antigen presentation and corresponding inflammatory pathways” value [1] is given as “induced suppression of genes related to antigen presentation”.
